Reference: patent US6342514B1, “Compositions and methods for treating bone deficit conditions” (ZymoGenetics, Inc., priority 1996, dated 2002)

How the values were obtained:
[1] = test system: calvarial bone of ICR Swiss white mice; assay: In vivo assay of effects of compounds on murine calvarial bone growth; parameters: species or system mouse; conditions: subcutaneous injection over right calvaria, day 14, compared to vehicle control
Method: Male ICR Swiss white mice, aged 4-6 weeks and weighing 13-26 gm, are employed, using 4-5 mice per group. The calvarial bone growth assay is performed as described in PCT application WO 95/24211. Briefly, the test compound or appropriate control vehicle is injected into the subcutaneous tissue over the right calvaria of normal mice. Typically, the control vehicle is the vehicle in which the compound was solubilized, and is PBS containing 5% DMSO or is PBS containing Tween (2 μl/10 ml). The animals are sacrificed on day 14 and bone growth measured by histomorphometry. Bone samples for quantitation are cleaned from adjacent tissues and fixed in 10% buffered formalin for 24-48 hours, decalcified in 14% EDTA for 1-3 weeks, processed through graded alcohols; and embedded in paraffin wax. Three to five μm sections of the calvaria are prepared, and representative sections are selected for histomorphometric assessment of the effects on bone formation and bone resorption. Sections are measured by using a camera lucida attachment to trace directly the microscopic image onto a digitizing plate. Bone changes are measured on sections cut 200 μm apart, over 4 adjacent 1×1 mm fields on both the injected and noninjected sides of the calvaria. New bone is identified by its characteristic woven structure, and osteoclasts and osteoblasts are identified by their distinctive morphology. […]

[2] = test system: mouse BMP2 promoter; assay: High throughput screening: BMP-2 promoter luciferase reporter assay in 2T3-BMP-2-LUC cells; assay type: cell-based; conditions: at about 3 μM
Excerpt: A rapid throughput screening test for compounds capable of stimulating expression of a reporter gene linked to a BMP promoter (a surrogate for the production of bone morphogenetic factors that are endogenously produced) is described in U.S. application Ser. No. 08/458,434, filed Jun. 2, 1995, the contents of which are incorporated herein by reference. This assay is also described as a portion of a study of immortalized murine osteoblasts (derived from a mouse expressing a transgene composed of a BMP2 promoter driving expression of T-antigen) in Ghosh-Choudhery, N. et al. Endocrinology (1996) 137:331-39. […]
Briefly, the assay utilizes cells transformed permanently or transiently with constructs in which the promoter of a bone morphogenetic protein, specifically BMP2 or BMP4, is coupled to a reporter gene, typically luciferase. These transformed cells are then evaluated for the production of the reporter gene product; compounds that activate the BMP promoter will drive production of the reporter protein, which can be readily assayed. […]
The treated cells were incubated for 24 hours at 37° C. and 5% CO2. […] Luminescence was measured on an automated 96-well luminometer, and was expressed as either picograms of luciferase activity per well or as picograms of luciferase activity per microgram of protein. […]

[3] = test system: TMC-23 mouse clonal chondrogenic cell line; assay: Chondrogenic activity: alkaline phosphatase (ALP) activity in TMC-23 cells; assay type: cell-based; conditions: day 2, 10^−9 M, compared to vehicle control
Method: Briefly, a mouse clonal chondrogenic cell line, TMC-23, was isolated and cloned from costal cartilage of transgenic mice containing the BMP-2 gene control region driving SV-40 large T-antigen, generated as described in Ghosh-Choudhury et al Endocrinology 137:331-39, 1996.
For measurement of alkaline phosphatase (ALP) activity, the technique of LF Bonewald et al. J Biol Chem (1992) 267:8943-49, was employed. Briefly, TMC-23 cells were plated in 96 well microtiter plates in DMEM containing 10% FCS at 4×10^3 cells/well. Two days after plating, the cells were confluent and the medium was replaced with fresh medium containing 10% FCS and different concentrations of compounds or recombinant BMP-2. After an additional 2 or 5 days incubation, the plates were washed twice with PBS, and then lysing solution (0.05% Triton X-100) was added (100 μl/well). The cells were lysed by three freeze-thaw cycles of −70° C. (30 min), followed by 37° C. (30 min with shaking). […] The spectrophotometric absorbance at 405 nm was compared to that of p-nitrophenol standards to estimate ALP activity in the samples. The protein content of the cell lysates was determined by the Bio-Rad protein assay kit (Bio-Rad, Hercules, Calif.). Specific activity was calculated using these two parameters.

Which “increase in width of new calvarial bone” value [1] does the source give for c1ccc(N=NC2=NNc3ccccc3S2)cc1 [Compound 59-0008, 3-phenylazo-1H-4,1,2-benzothiadiazine] here?
Its value is 4 fold.

What about the “luciferase response at maximal activity” value [2] of the same compound?
Its value is “approximately 175 light emission units”.

And the “increase of ALP levels” value [3]?
The value was “approximately 3 fold”.
